Source: the NIST ThermoML archive (doi:10.1016/j.jct.2016.06.012)

Assay: xn = mol fraction of the nth substance listed
Settings: 100 kPa, Liquid; for viscosity: Capillary tube (Ostwald / Ubbelohde) method; for mass density: Vibrating tube method

CCCCn1cc[n+](C)c1C.O=S(=O)([N-]S(=O)(=O)C(F)(F)F)C(F)(F)F + O=C1CCCO1
Settings | mass density [kg/m3] | viscosity [mPa·s]
293.15 K, x1 = 0.0532 | 1183 | 2.62
293.15 K, x1 = 0.1004 | 1219.51 | 3.65
293.15 K, x1 = 0.1504 | 1250.59 | 4.95
293.15 K, x1 = 0.1999 | 1275.61 | 6.54
293.15 K, x1 = 0.2988 | 1314.04 | 10.79
293.15 K, x1 = 0.4006 | 1342.77 | 17.78
293.15 K, x1 = 0.5005 | 1364.2 | 26.66
293.15 K, x1 = 0.5999 | 1381 | 40.38
293.15 K, x1 = 0.7 | 1394.71 | 56.57
293.15 K, x1 = 0.8013 | 1406.18 | 79.17
293.15 K, x1 = 0.8986 | 1415.43 | 102.22
293.15 K, x1 = 1 | 1423.72 | 133.59
298.15 K, x1 = 0.0532 | 1178.1 | 2.43
298.15 K, x1 = 0.1004 | 1214.61 | 3.29
298.15 K, x1 = 0.1504 | 1245.77 | 4.48
298.15 K, x1 = 0.1999 | 1270.81 | 5.77
298.15 K, x1 = 0.2988 | 1309.26 | 9.32
298.15 K, x1 = 0.4006 | 1338.05 | 14.92
298.15 K, x1 = 0.5005 | 1359.5 | 22.02
298.15 K, x1 = 0.5999 | 1376.34 | 32.56
298.15 K, x1 = 0.7 | 1390.08 | 44.79
298.15 K, x1 = 0.8013 | 1401.56 | 60.93
298.15 K, x1 = 0.8986 | 1410.81 | 78.62
298.15 K, x1 = 1 | 1419.13 | 101.34
303.15 K, x1 = 0.0532 | 1173.22 | 2.23
303.15 K, x1 = 0.1004 | 1209.75 | 2.98
303.15 K, x1 = 0.1504 | 1240.94 | 4.01
303.15 K, x1 = 0.1999 | 1266 | 5.11
303.15 K, x1 = 0.2988 | 1304.49 | 8.06
303.15 K, x1 = 0.4006 | 1333.32 | 12.72
303.15 K, x1 = 0.5005 | 1354.8 | 18.27
303.15 K, x1 = 0.5999 | 1371.67 | 26.34
303.15 K, x1 = 0.7 | 1385.42 | 35.8
303.15 K, x1 = 0.8013 | 1396.93 | 48.32
303.15 K, x1 = 0.8986 | 1406.19 | 61.12
303.15 K, x1 = 1 | 1414.52 | 77.86
308.15 K, x1 = 0.0532 | 1168.35 | 2.05
308.15 K, x1 = 0.1004 | 1204.91 | 2.72
308.15 K, x1 = 0.1504 | 1236.11 | 3.65
308.15 K, x1 = 0.1999 | 1261.18 | 4.57
308.15 K, x1 = 0.2988 | 1299.72 | 7.1
308.15 K, x1 = 0.4006 | 1328.58 | 10.83
308.15 K, x1 = 0.5005 | 1350.1 | 15.54
308.15 K, x1 = 0.5999 | 1366.99 | 21.9
308.15 K, x1 = 0.7 | 1380.78 | 29.22
308.15 K, x1 = 0.8013 | 1392.3 | 39.19
308.15 K, x1 = 0.8986 | 1401.58 | 48.88
308.15 K, x1 = 1 | 1409.91 | 61.73
313.15 K, x1 = 0.0532 | 1163.43 | 1.9
313.15 K, x1 = 0.1004 | 1200.07 | 2.49
313.15 K, x1 = 0.1504 | 1231.24 | 3.28
313.15 K, x1 = 0.1999 | 1256.38 | 4.11
313.15 K, x1 = 0.2988 | 1294.96 | 6.29
313.15 K, x1 = 0.4006 | 1323.85 | 9.4
313.15 K, x1 = 0.5005 | 1345.39 | 13.32
313.15 K, x1 = 0.5999 | 1362.33 | 18.32
313.15 K, x1 = 0.7 | 1376.14 | 24.44
313.15 K, x1 = 0.8013 | 1387.67 | 32.14
313.15 K, x1 = 0.8986 | 1396.98 | 39.87
313.15 K, x1 = 1 | 1405.31 | 49.77
318.15 K, x1 = 0.0532 | 1158.58 | 1.74
318.15 K, x1 = 0.1004 | 1195.18 | 2.3
318.15 K, x1 = 0.1504 | 1226.41 | 3.06
318.15 K, x1 = 0.1999 | 1251.54 | 3.74
318.15 K, x1 = 0.2988 | 1290.17 | 5.63
318.15 K, x1 = 0.4006 | 1319.11 | 8.18
318.15 K, x1 = 0.5005 | 1340.7 | 11.52
318.15 K, x1 = 0.5999 | 1357.64 | 15.42
318.15 K, x1 = 0.7 | 1371.48 | 20.51
318.15 K, x1 = 0.8013 | 1383.04 | 26.78
318.15 K, x1 = 0.8986 | 1392.36 | 32.9
318.15 K, x1 = 1 | 1400.7 | 40.7
323.15 K, x1 = 0.0532 | 1153.71 | 1.63
323.15 K, x1 = 0.1004 | 1190.32 | 2.12
323.15 K, x1 = 0.1504 | 1221.58 | 2.72
323.15 K, x1 = 0.1999 | 1246.73 | 3.39
323.15 K, x1 = 0.2988 | 1285.42 | 5.03
323.15 K, x1 = 0.4006 | 1314.4 | 7.22
323.15 K, x1 = 0.5005 | 1336.03 | 10.06
323.15 K, x1 = 0.5999 | 1352.99 | 13.17
323.15 K, x1 = 0.7 | 1366.86 | 17.44
323.15 K, x1 = 0.8013 | 1378.44 | 22.39
323.15 K, x1 = 0.8986 | 1387.78 | 27.46
323.15 K, x1 = 1 | 1396.13 | 33.69
